Legend:
[1] = system: Mouse ES cells (J1 strain); assay: Hcrt expression in mouse ES cells, SFEB/gfCDM differentiation culture system, RT-PCR; assay type: cell-based; settings: 1.0 mM from 7th day of differentiation culturing
Experimental: Mouse ES cells (J1 strain) which had been maintained in a medium for an ES cell were seeded on a 96-well low adhering round-bottom culture dish (Nunc) so that the cell count became 10,000 cells per well, and cultured with gfCDM [IMDM/F12 (Invitrogen) added with 5 mg/ml BSA (SIGMA), 450 μM Monothioglycerol (Wako), 1× chemically defined lipid concentrate (Invitrogen), 50 U/ml penicillin/50 μg/ml streptomycin] for 7 days. The cells were cultured in 150 μl of a medium per well. On 7th day of differentiation culturing, the medium was exchanged with a DFK medium [DMEM/F12 (Invitrogen) added with 7 g/1 glucose, 10% KSR, 50 U/ml penicillin/50 μg/ml streptomycin], and on 10th day, half the amount of the medium was exchanged with a DFNB medium [7 g/1 glucose, 1×N2 (Wako), 1×B27 (Invitrogen)] containing 10 ng/ml CNTF. On 13th day of culturing, cells were detached with 0.05% trypsin/EDTA, seeded on a culture dish (Falcon) which had been treated with poly-D-lysine/laminin so that the cell count became 4.8×10^6 cells per 10 cm culture dish, and cultured in a DFNB medium containing 10% FBS, 10 ng/ml CNTF, 50 ng/ml BDNF and 50 ng/ml NT3. The medium was exchanged every 3 days. On 25th day of differentiation culturing, cells were collected and pelletized by a centrifugation operation to remove the culture medium. Thereafter, the pellets were immediately frozen in liquid nitrogen, and stored at −80° C. until use.
The analysis was performed by the same method as that of Example 1.

[2] = system: orexin gene-expressing cells (orexin neuron) in the lateral hypothalamic area; assay: Increase in orexin neuron in vivo, in situ hybridization of lateral hypothalamic area of old mouse; settings: old mouse C57BL/6 male, 5 mg/ml in drinking water, 8 weeks from 53- to 61-week-old, versus non-administration old mouse; FIG. 12
Experimental: ManNAc was dissolved in drinking water, and the drinking water with a concentration of 5 mg/ml was administered to old mouse (C57BL/6, male) by allowing free access to water for 8 weeks in total from 53-week-old to 61-week-old. After completion of the administration, the aforementioned mouse was immediately perfusion fixed and subjected to in situ hybridization method. As a control group, ManNAc non-administration old mouse (61-week-old at the time point of fixing) and young mouse (10-week-old at the time point of fixing) were used.
Each three mice of ManNAc administration and control groups were anesthetized with Nembutal, and perfusion fixed with formamide fixative (Genostaff). The brain was removed, embedded in paraffin, and 6 μm-thick sections were prepared in the sagittal section direction. […]
was cloned into a […] vector (Promega) and, using the plasmid as a template and DIG RNA Labeling Mix (Roche), a digoxygenin-labeled RNA probe was produced. […] The cells that expressed orexin gene were counted and the average of three animals and the standard error were determined.

CC(=O)N[C@@H]1C(O)O[C@H](CO)[C@@H](O)[C@@H]1O (stereo partly drawn) [ManNAc, N-acetyl-D-mannosamine]
Level of Hcrt expression compared with Neu5Ac-added section [1]: high expression of Hcrt was observed | Expression of Hcrt ([1]; cells collected on 25th day, FIG. 5): expression of Hcrt was recognized | number of orexin gene-expressing cells (orexin neuron) in the lateral hypothalamic area [2]: orexin neuron increased

Reference: patent US9480695B2, “Methods for inducing orexin neurons and agent for treating narcolepsy or eating disorder” (THE UNIVERSITY OF TOKYO, priority 2011, dated 2016)
